Assays:
[1] = biological target: human MLKL (full length) (Homo sapiens (Human), UniProt Q8NB16); experiment: KINOMEscan binding assay, human MLKL (full length); details: equilibrium dissociation constant
How it was run: (§1)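 Assay principle: test compound competes with immobilized bead ligand for kinase; kinase retained, then eluted, is counted by qPCR. Conditions were 1% DMSO final with 11 compound concentrations in 3-fold steps, 30,000 nM top for most. The Hill equation with slope −1 gave Kd.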

[2] = biological target: human RIPK1 (Homo sapiens (Human), UniProt Q13546); experiment: KINOMEscan binding assay, human RIPK1; details: equilibrium dissociation constant
How it was run: as §1

[3] = biological target: human RIPK3 (Homo sapiens (Human), UniProt Q9Y572); experiment: KINOMEscan binding assay, human RIPK3; details: equilibrium dissociation constant
How it was run: as §1

[4] = system: U937 human histiocytic leukemia cell line; experiment: Inhibition of TSQ induced necroptosis in U937 cells (CellTitre-Glo); details: Homo sapiens, U-937, TSQ cocktail (TNF, Smac mimetic, Q-VD-OPh), 48 hours, read-out: Inhibition of TSQ-induced necroptosis (IC50 cell-based assay)
How it was run: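 Necroptosis was induced with TNF-Fc (100 ng/ml), Smac mimetic (500 nM) and Q-VD-OPh (10 μM) in 20000 U937 cells/well exposed to a 10-point, 3-fold compound series (top 36 μM, 0.3% DMSO). ATP luminescence read after 48 h; 4-parameter fit gave IC50. Parallel TSQ-free wells assessed compound toxicity.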

[5] = system: U937 cells; experiment: Counter screen: U937 cell viability without TSQ cocktail (off-target effect); parameters: species or system human; details: Homo sapiens, U-937, compound without TSQ cocktail, read-out: Off-target effect (IC50 cell-based assay)
How it was run: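 Off-target viability counter screen: compounds titrated 36 μM down 1:3 over 10 points (0.3% DMSO) on 20,000 U937 cells/well, no TNF/Smac mimetic/Q-VD-OPh added, 48 h incubation. ATP-based CellTiter-Glo luminescence, four-parameter logistic IC50.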

Sequence of human MLKL (full length) (Q8NB16 whole entry): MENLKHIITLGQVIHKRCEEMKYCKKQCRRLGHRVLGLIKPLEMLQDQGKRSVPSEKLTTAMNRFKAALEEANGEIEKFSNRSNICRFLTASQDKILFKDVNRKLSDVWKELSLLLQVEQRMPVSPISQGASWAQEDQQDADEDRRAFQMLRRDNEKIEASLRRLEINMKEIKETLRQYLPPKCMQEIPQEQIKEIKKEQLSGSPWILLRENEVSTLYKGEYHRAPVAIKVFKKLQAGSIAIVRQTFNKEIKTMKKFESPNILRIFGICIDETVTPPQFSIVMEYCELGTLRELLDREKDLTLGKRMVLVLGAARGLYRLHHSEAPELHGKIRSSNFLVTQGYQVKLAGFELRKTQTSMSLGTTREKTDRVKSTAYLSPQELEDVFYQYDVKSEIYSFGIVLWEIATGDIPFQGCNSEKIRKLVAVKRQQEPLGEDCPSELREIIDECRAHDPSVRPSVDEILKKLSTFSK
Sequence of human RIPK3 (Q9Y572 whole entry): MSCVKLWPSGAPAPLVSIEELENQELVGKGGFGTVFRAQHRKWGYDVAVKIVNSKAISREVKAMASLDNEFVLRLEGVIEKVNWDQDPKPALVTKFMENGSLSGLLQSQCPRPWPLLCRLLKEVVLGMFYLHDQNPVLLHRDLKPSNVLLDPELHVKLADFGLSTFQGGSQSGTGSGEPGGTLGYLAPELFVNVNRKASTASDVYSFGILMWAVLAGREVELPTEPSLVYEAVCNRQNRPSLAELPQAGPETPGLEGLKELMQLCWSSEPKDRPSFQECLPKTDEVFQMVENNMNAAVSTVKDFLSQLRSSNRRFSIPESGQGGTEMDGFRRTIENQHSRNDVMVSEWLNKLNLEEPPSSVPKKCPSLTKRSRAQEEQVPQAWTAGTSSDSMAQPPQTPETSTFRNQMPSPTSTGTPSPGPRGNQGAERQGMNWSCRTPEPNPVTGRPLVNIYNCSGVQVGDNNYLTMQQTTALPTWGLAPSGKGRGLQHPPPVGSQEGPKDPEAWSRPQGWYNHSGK
Sequence of human RIPK1 (Q13546 whole entry): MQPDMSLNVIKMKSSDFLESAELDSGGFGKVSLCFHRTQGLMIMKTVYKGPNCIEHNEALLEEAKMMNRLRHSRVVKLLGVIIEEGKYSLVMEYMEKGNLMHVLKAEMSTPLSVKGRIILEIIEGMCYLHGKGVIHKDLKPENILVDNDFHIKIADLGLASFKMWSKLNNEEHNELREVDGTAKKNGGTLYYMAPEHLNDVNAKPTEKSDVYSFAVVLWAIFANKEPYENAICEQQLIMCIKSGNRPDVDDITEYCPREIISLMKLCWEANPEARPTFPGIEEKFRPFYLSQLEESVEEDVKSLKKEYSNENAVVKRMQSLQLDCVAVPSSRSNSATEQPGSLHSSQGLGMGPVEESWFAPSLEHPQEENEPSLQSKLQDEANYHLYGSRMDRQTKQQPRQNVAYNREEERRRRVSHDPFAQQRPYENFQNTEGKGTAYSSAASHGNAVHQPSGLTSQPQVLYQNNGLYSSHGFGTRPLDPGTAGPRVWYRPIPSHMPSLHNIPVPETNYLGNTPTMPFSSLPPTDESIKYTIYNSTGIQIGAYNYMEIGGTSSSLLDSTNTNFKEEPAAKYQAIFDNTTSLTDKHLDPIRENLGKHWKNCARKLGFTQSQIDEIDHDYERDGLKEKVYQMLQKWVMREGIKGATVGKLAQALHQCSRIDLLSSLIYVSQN

Structure (SMILES)	Kd [1] [µM]	Kd [2] [µM]	Kd [3] [µM]	IC50 [4] [µM]	IC50 [5] [µM]
C[C@H](Oc1cc(-c2nn(C)c3c(-c4ccc5c(c4)n(C)c(=O)n5C)cnc(N)c23)ccc1NS(=O)(=O)C(F)F)c1ccc(F)cc1 [Compound 161, (S)-N-(4-(4-amino-7-(1,3-dimethyl-2-oxo-2,3-dihydro-1H-benzo[d]imidazol-5-yl)-1-methyl-1H-pyrazolo[4,3-c]pyridin-3-yl)-2-(1-(4-fluorophenyl)ethoxy)phenyl)-1,1-difluoromethanesulfonamide]	< 0.001	> 10	> 10	1 to 10	> 10
C[C@H](Oc1cc(-c2nn(C)c3c(-c4ccnc(C(F)(F)F)c4)cnc(N)c23)ccc1NS(=O)(=O)C(F)F)c1ccc(F)cc1 [Compound 23, (S)-N-(4-(4-amino-1-methyl-7-(2-(trifluoromethyl)pyridin-4-yl)-1H-pyrazolo[4,3-c]pyridin-3-yl)-2-(1-(4-fluorophenyl)ethoxy)phenyl)-1,1-difluoromethanesulfonamide]	0.001 to 0.1	> 10	> 10	1 to 10	> 10
C[C@H](Oc1cc(-c2nn(C)c3c(C4=CCCN(C)C4)cnc(N)c23)ccc1NS(=O)(=O)C(F)F)c1ccc(F)cc1 [Compound 55, (S)—N-(4-(4-amino-1-methyl-7-(1-methyl-1,2,5,6-tetrahydropyridin-3-yl)-1H-pyrazolo[4,3-c]pyridin-3-yl)-2-(1-(4-fluorophenyl)ethoxy)phenyl)-1,1-difluoromethanesulfonamide]	< 0.001	> 10	> 10	1 to 10	> 10
C[C@H](Oc1cc(-c2nn(C)c3c(-c4cnn(C5CCOCC5)c4)cnc(N)c23)ccc1NS(C)(=O)=O)c1ccc(F)cc1 [Compound 119, (S)-N-(4-(4-amino-1-methyl-7-(1-(tetrahydro-2H-pyran-4-yl)-1H-pyrazol-4-yl)-1H-pyrazolo[4,3-c]pyridin-3-yl)-2-(1-(4-fluorophenyl)ethoxy)phenyl)methanesulfonamide]	0.001 to 0.1	> 10	> 10	0.01 to 1	> 10
C[C@H](Oc1cc(-c2nn(C)c3c(-c4cnn(CCN5CC(C)(C)C5)c4)cnc(N)c23)ccc1NS(=O)(=O)C(F)F)c1ccc(F)cc1 [Compound 75, (S)-N-(4-(4-amino-7-(1-(2-(3,3-dimethylazetidin-1-yl)ethyl)-1H-pyrazol-4-yl)-1-methyl-1H-pyrazolo[4,3-c]pyridin-3-yl)-2-(1-(4-fluorophenyl)ethoxy)phenyl)-1,1-difluoromethanesulfonamide]	< 0.001	> 10	> 10	< 0.01	> 10
C[C@H](Oc1cc(-c2nn(C)c3c(-c4cnn(C5CC6CCC(C5)N6C)c4)cnc(N)c23)ccc1NS(=O)(=O)C(F)F)c1ccc(F)cc1 (stereo partly drawn) [Compound 73, N-(4-(4-amino-1-methyl-7-(1-(8-methyl-8-azabicyclo[3.2.1]octan-3-yl)-1H-pyrazol-4-yl)-1H-pyrazolo[4,3-c]pyridin-3-yl)-2-((S)-1-(4-fluorophenyl)ethoxy)phenyl)-1,1-difluoromethanesulfonamide]	< 0.001	> 10	> 10	0.01 to 1	> 10
CC(C)n1nc(-c2ccc(NS(=O)(=O)C(F)F)c(O[C@@H](C)c3ccc(F)cc3)c2)c2c(N)ncc(-c3cnn(C4CCOCC4)c3)c21 [Compound 51, (S)-N-(4-(4-amino-1-isopropyl-7-(1-(tetrahydro-2H-pyran-4-yl)-1H-pyrazol-4-yl)-1H-pyrazolo[4,3-c]pyridin-3-yl)-2-(1-(4-fluorophenyl)ethoxy)phenyl)-1,1-difluoromethanesulfonamide]	0.001 to 0.1	> 10	> 10	0.01 to 1	> 10
CC1CNCC(n2cc(-c3cnc(N)c4c(-c5ccc(NS(=O)(=O)C(F)F)c(O[C@@H](C)c6ccc(F)cc6)c5)nn(C)c34)cn2)C1 (stereo partly drawn) [Compound 95, N-(4-(4-amino-1-methyl-7-(1-(5-methylpiperidin-3-yl)-1H-pyrazol-4-yl)-1H-pyrazolo[4,3-c]pyridin-3-yl)-2-((S)-1-(4-fluorophenyl)ethoxy)phenyl)-1,1-difluoromethanesulfonamide]	0.001 to 0.1	> 10	> 10	0.01 to 1	> 10
C[C@H](Oc1cc(-c2nn(C)c3c(-c4cnc(N)nc4)cnc(N)c23)ccc1NS(=O)(=O)C(F)F)c1ccc(F)cc1 [Compound 108, (S)-N-(4-(4-amino-7-(2-aminopyrimidin-5-yl)-1-methyl-1H-pyrazolo[4,3-c]pyridin-3-yl)-2-(1-(4-fluorophenyl)ethoxy)phenyl)-1,1-difluoromethanesulfonamide]	< 0.001	> 10	> 10	0.01 to 1	> 10
C[C@H](Oc1cc(-c2nn(C)c3c(C4=CCOCC4)cnc(N)c23)ccc1NS(=O)(=O)C(F)F)c1ccc(F)cc1 [Compound 43, (S)-N-(4-(4-amino-7-(3,6-dihydro-2H-pyran-4-yl)-1-methyl-1H-pyrazolo[4,3-c]pyridin-3-yl)-2-(1-(4-fluorophenyl)ethoxy)phenyl)-1,1-difluoromethanesulfonamide]	0.001 to 0.1	> 10	> 10	0.01 to 1	> 10
C[C@H](Oc1cc(-c2nn(C)c3c(-c4cnn(C5CCCNCC5)c4)cnc(N)c23)ccc1NS(=O)(=O)C(F)F)c1ccc(F)cc1 (stereo partly drawn) [Compound 74, N-(4-(4-amino-7-(1-(azepan-4-yl)-1H-pyrazol-4-yl)-1-methyl-1H-pyrazolo[4,3-c]pyridin-3-yl)-2-((S)-1-(4-fluorophenyl)ethoxy)phenyl)-1,1-difluoromethanesulfonamide]	< 0.001	> 10	> 10	0.01 to 1	> 10
CNCCn1cc(-c2cnc(N)c3c(-c4ccc(NS(=O)(=O)C(F)F)c(O[C@@H](C)c5ccc(F)cc5)c4)nn(C)c23)cn1 [Compound 82, (S)-N-(4-(4-amino-1-methyl-7-(1-(2-(methylamino)ethyl)-1H-pyrazol-4-yl)-1H-pyrazolo[4,3-c]pyridin-3-yl)-2-(1-(4-fluorophenyl)ethoxy)phenyl)-1,1-difluoromethanesulfonamide]	< 0.001	> 10	> 10	0.01 to 1	> 10
C[C@H](Oc1cc(-c2nn(C)c3c(-c4cnc(N(C)C)nc4)cnc(N)c23)ccc1NS(=O)(=O)C(F)F)c1ccc(F)cc1 [Compound 106, (S)-N-(4-(4-amino-7-(2-(dimethylamino)pyrimidin-5-yl)-1-methyl-1H-pyrazolo[4,3-c]pyridin-3-yl)-2-(1-(4-fluorophenyl)ethoxy)phenyl)-1,1-difluoromethanesulfonamide]	0.001 to 0.1	> 10	> 10	0.01 to 1	> 10
C[C@H](Oc1cc(-c2nn(C)c3c(-c4cnn(C(F)(F)F)c4)cnc(N)c23)ccc1NS(=O)(=O)C(F)F)c1ccc(F)cc1 [Compound 134, (S)-N-(4-(4-amino-1-methyl-7-(1-(trifluoromethyl)-1H-pyrazol-4-yl)-1H-pyrazolo[4,3-c]pyridin-3-yl)-2-(1-(4-fluorophenyl)ethoxy)phenyl)-1,1-difluoromethanesulfonamide]	0.001 to 0.1	> 10	> 10	0.01 to 1	> 10

Reference: patent US20250059188A1, “ARYLSULPHONAMIDE COMPOUNDS” (Anaxis Pharma Pty Ltd, priority 2021, published 2025)
